{"source": "patent US12157741B2", "about": "“Macrocyclic inhibitors of DYRK1A” (DANA-FARBER CANCER INSTITUTE, INC., priority 2018, dated 2024)", "key": {"various enzymes [1]": {"target": "various enzymes (Homo sapiens, UniProt O15075)", "sequence (O15075 whole entry)": "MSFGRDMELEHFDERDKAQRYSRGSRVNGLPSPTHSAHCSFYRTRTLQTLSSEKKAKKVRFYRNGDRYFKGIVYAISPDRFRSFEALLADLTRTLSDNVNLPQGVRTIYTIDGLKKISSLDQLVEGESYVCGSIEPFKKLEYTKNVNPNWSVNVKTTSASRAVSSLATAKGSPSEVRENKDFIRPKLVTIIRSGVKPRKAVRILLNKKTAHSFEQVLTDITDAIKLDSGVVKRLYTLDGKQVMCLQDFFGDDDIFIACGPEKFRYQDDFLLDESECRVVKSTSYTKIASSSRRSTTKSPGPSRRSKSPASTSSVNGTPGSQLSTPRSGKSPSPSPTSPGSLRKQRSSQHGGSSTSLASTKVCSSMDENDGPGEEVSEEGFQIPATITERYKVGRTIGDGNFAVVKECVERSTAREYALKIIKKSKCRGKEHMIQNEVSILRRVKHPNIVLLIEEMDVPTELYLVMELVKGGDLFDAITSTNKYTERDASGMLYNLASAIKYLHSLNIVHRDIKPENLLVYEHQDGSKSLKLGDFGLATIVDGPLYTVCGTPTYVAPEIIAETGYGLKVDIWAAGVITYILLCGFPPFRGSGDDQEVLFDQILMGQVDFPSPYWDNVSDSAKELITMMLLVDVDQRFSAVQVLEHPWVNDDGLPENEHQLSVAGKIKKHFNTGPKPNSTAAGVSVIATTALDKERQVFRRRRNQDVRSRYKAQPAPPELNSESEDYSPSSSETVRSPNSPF", "conditions": "DCAMKL1; 1 uM", "procedure": "(§1) Ambit profiling from Eurofins (formerly Discoverx) was conducted in accordance with the manufacturer's instructions."}, "various enzymes [2]": {"target": "T1, various enzymes (Homo sapiens, UniProt P29323)", "T1 sequence (P29323 19-1055)": "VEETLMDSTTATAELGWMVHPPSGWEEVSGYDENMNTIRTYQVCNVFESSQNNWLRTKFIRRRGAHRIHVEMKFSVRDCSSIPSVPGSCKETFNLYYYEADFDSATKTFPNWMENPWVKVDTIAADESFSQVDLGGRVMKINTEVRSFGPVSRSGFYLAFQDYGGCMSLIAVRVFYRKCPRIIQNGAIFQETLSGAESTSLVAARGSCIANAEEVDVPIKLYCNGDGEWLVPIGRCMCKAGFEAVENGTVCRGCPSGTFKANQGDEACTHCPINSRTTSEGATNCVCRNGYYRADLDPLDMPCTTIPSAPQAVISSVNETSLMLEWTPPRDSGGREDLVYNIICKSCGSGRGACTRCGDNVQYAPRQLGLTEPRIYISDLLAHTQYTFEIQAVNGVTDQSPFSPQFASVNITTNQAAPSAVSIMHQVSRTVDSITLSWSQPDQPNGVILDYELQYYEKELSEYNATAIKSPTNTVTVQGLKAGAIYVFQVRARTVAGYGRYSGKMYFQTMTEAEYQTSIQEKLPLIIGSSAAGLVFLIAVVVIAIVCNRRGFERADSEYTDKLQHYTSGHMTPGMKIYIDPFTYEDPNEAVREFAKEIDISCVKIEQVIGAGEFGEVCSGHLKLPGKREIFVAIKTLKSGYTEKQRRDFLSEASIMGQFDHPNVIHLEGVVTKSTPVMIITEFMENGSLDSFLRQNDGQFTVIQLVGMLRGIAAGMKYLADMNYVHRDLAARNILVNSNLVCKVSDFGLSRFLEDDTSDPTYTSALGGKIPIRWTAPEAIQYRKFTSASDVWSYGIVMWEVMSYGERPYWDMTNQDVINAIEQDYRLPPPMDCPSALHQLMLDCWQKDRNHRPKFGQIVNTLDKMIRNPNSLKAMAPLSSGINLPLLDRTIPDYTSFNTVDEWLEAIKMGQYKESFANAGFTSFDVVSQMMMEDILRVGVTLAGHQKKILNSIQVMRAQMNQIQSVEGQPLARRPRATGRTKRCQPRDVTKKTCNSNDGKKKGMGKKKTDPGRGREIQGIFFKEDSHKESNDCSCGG", "conditions": "EPHB2; 1 uM", "procedure": "as §1"}, "various enzymes [3]": {"target": "various enzymes (Homo sapiens, UniProt P45984)", "sequence (P45984 whole entry)": "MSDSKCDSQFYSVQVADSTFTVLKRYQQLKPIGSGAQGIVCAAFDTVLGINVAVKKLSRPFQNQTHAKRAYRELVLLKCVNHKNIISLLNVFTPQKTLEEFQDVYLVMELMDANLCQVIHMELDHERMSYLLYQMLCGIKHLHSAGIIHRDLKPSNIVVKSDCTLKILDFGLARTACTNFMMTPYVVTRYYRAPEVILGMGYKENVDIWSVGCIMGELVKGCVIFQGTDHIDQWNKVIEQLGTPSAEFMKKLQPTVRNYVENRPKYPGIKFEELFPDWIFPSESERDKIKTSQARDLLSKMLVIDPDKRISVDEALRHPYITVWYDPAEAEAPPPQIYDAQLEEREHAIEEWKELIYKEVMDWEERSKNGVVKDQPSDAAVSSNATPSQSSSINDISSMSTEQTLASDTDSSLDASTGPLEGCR", "conditions": "JNK2; 1 uM", "procedure": "as §1"}, "various enzymes [4]": {"target": "various enzymes (Homo sapiens, UniProt P49336)", "sequence (P49336 whole entry)": "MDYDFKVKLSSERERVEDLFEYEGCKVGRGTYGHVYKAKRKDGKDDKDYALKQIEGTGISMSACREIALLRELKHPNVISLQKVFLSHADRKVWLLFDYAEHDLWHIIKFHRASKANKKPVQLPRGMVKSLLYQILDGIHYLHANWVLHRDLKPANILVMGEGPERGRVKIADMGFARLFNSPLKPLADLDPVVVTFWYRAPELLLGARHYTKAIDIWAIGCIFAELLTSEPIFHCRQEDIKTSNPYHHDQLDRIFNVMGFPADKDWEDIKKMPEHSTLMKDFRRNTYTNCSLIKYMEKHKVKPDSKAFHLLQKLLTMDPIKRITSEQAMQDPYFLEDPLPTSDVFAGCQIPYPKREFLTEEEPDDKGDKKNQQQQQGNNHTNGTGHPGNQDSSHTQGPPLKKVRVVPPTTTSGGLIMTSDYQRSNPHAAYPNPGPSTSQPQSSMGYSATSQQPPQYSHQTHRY", "conditions": "CDK8; 1 uM", "procedure": "as §1"}, "various enzymes [5]": {"target": "T2, various enzymes (Homo sapiens, UniProt Q9H093)", "T2 sequence (Q9H093 1-628)": "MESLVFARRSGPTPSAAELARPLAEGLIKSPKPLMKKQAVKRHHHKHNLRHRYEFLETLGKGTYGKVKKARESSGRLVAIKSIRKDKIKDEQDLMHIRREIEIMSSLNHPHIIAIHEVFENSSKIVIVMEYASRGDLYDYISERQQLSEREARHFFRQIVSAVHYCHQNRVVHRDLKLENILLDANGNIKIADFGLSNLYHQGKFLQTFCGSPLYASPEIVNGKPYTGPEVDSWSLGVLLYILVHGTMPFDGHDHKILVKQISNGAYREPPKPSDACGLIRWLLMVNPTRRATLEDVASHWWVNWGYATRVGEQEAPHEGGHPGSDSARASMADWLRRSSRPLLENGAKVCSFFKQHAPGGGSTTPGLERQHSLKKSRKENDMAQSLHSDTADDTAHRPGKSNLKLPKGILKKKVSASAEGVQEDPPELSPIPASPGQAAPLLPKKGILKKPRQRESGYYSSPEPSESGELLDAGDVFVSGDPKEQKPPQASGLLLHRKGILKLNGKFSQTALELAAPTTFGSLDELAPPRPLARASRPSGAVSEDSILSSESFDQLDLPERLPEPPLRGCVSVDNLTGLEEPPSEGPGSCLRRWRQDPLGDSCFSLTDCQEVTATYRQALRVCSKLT", "conditions": "SNARK; 1 uM", "procedure": "as §1"}, "various enzymes [6]": {"target": "T3, various enzymes (Homo sapiens, UniProt Q9NRM7)", "T3 sequence (Q9NRM7 1-1088)": "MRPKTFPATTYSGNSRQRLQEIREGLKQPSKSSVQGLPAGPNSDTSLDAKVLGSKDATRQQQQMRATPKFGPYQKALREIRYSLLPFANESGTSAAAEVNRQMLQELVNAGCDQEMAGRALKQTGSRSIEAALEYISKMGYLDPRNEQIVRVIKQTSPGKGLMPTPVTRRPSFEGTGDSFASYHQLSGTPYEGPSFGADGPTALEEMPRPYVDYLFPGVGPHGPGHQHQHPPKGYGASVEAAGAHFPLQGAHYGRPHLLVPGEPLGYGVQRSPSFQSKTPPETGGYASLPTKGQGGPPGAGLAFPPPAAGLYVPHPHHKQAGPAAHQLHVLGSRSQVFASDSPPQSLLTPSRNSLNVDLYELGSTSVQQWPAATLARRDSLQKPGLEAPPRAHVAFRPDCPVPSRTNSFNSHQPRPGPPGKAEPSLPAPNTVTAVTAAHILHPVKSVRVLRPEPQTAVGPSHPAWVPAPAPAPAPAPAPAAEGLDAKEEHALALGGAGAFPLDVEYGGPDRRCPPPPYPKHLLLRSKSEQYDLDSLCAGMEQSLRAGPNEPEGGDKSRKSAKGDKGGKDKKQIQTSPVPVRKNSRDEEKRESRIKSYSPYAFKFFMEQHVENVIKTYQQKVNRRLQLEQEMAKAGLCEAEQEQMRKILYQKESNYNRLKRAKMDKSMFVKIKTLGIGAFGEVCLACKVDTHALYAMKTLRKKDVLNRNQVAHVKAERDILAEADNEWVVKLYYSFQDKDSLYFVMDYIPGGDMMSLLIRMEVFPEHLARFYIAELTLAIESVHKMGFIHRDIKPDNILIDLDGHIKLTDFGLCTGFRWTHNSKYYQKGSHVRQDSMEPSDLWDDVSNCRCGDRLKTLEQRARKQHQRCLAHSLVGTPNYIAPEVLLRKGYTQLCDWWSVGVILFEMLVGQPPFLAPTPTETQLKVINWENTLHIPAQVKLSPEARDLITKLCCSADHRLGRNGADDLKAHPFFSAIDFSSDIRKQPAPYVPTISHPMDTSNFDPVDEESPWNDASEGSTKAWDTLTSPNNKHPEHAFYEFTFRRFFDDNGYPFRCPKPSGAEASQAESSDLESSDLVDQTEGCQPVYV", "conditions": "LATS2; 1 uM", "procedure": "as §1"}, "various enzymes [7]": {"target": "various enzymes (Homo sapiens, UniProt Q9NYY3)", "sequence (Q9NYY3 whole entry)": "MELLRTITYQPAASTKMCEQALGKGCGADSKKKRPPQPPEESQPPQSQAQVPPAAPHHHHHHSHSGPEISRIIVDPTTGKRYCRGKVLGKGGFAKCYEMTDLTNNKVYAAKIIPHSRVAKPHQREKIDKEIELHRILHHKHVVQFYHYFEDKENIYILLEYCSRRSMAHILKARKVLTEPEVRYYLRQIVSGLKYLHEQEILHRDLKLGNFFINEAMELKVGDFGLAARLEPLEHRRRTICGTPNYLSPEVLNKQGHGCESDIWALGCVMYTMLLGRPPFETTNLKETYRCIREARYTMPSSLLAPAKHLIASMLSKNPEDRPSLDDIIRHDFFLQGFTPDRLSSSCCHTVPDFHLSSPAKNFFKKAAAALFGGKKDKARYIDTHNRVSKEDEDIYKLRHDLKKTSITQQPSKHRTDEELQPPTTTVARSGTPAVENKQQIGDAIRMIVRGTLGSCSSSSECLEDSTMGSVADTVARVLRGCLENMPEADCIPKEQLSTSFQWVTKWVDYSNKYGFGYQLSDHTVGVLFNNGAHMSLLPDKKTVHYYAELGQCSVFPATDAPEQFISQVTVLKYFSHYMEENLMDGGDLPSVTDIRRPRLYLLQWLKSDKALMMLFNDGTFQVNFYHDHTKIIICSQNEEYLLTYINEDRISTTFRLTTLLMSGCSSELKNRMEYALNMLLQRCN", "conditions": "PLK2; 1 uM", "procedure": "as §1"}}}
{"smiles": "CN1Cc2nn(C)c(C#N)c2-c2cnc3[nH]cc(c3c2)-c2cn(nc2C(F)(F)F)CCCC1=O", "note": "[Compound 48, (Z)-31,5-dimethyl-6-oxo-13-(trifluoromethyl)-11H,21H,31H-5-aza-2(3,5)-pyrrolo[2,3-b]pyridina-1(4,1),3(4,3)-dipyrazolacyclononaphane-35-carbonitrile]", "values": [{"measurement": "Ambit profiling", "setting": "various enzymes [1]", "value": 92}, {"measurement": "Ambit profiling", "setting": "various enzymes [2]", "value": 99}, {"measurement": "Ambit profiling", "setting": "various enzymes [3]", "value": 8.1}, {"measurement": "Ambit profiling", "setting": "various enzymes [4]", "value": 100}, {"measurement": "Ambit profiling", "setting": "various enzymes [5]", "value": 100}, {"measurement": "Ambit profiling", "setting": "various enzymes [6]", "value": 100}, {"measurement": "Ambit profiling", "setting": "various enzymes [7]", "value": 100}]}
{"smiles": "CN1Cc2nn(C)cc2-c2cnc3[nH]cc(c3c2)-c2cnn(c2)CCCC1=O", "note": "[Compound 41, (Z)-31,5-dimethyl-11H,21H,31H-5-aza-2(3,5)-pyrrolo[2,3-b]pyridina-1(4,1),3(4,3)-dipyrazolacyclononaphan-6-one]", "values": [{"measurement": "Ambit profiling", "setting": "various enzymes [1]", "value": 65}, {"measurement": "Ambit profiling", "setting": "various enzymes [2]", "value": 80}, {"measurement": "Ambit profiling", "setting": "various enzymes [3]", "value": 1.1}, {"measurement": "Ambit profiling", "setting": "various enzymes [4]", "value": 100}, {"measurement": "Ambit profiling", "setting": "various enzymes [5]", "value": 4.3}, {"measurement": "Ambit profiling", "setting": "various enzymes [6]", "value": 63}, {"measurement": "Ambit profiling", "setting": "various enzymes [7]", "value": 90}]}
